Read-outs that look alike come from different tables or passages of the source. Where a SMILES comes first, the peptide text is derived from it. Bridges are numbered along the chain shown (N, C = ends). [ ]: non-standard residue; d: D form.
Experiments:
[1] = test system: mdx mice; assay: Toxicity with daily subQ dosing for 30 days; assay type: in vivo, mouse; settings: 5 mg/kg subQ daily, 30 days (month long)
Protocol: This example describes toxicity studies with GsMTx-4. In one experiment, D-GsMTx4 was administered to 60 mdx mice and controls by daily subQ dosing at 5 mg/kg for 30 days at the Washington D.C. Wellstone center.

[2] = test system: mice; assay: Acute IV toxicity, observed for 1 hour, mice; assay type: in vivo, mouse
Protocol: In another experiment, mice were IV injected with D-GsMTx4 at 9, 5, 3, and 1 mg/kg concentrations and observed for 1 hour at Covance Drug Development Company. There were 3 mice injected per concentration. […] All mice appeared normal by 1 hour.

[3] = test system: rats; assay: Acute IV toxicity, observed for 1 hour, rats; assay type: in vivo, rat
Protocol: In another experiment, rats were IV injected with D-GsMTx4 at 9, 3, and 1 mg/kg concentrations and observed for 1 hour at Covance Drug Development Company. There were 3 rats injected for 3 and 1 mg/kg and 1 rat injected for 9 mg/kg concentration.

[4] = test system: ferrets; assay: Cardiovascular hemodynamics and EKG after IV injection in telemetered animals; assay type: in vivo, ferret; settings: IV 0.2 to 5 mg/kg
Protocol: In another study, Cardiovascular hemodynamics and EKG was assessed after IV injection of D-GsMTx4 into telemetered free ranging ferrets in 4 cohorts of 3 animals over concentration ranging from 0.2 to 5 mg/kg at Covance Drug Development Company. This study was one of the main recommendations given us by the TACT advisory panel in Spring 2011. Particular attention was given to QT intervals, arterial pressure (mean, systolic and diastolic) and core temperature for 24 hours following IV injection.

[5] = Tissue distribution over 24 hrs after a single dosing; assay type: in vivo, mouse; settings: for Tmax: mouse, blood, read-out: time of peak blood concentration
Protocol: This example describes the tissue distribution of GsMTx-4. Mice were dosed with D-GsMTx4 by three methods of administration and sacrificed at different time points over 24 hrs by Covance Drug Development Company. Tissues were harvested and sent frozen to Custom Biologics Company for concentration analysis. There were three animals per cohort and 7 time points distributed approximately logarithmically over 24 hours following a single dosing. We followed the distribution of peptide for three routes of administration −5 mg/kg IV, 50 mg/kg subQ and 50 mg/kg GI lavage. […] We sampled 7 different tissues including EDL muscle, diaphragm, brain, bladder, heart, liver and blood. […] Under both methods the peptide peaked in all tissues at about 2 hrs and plateaued for the 24 hr experiment duration. […] The distribution followed a pattern reflecting the relative capillary permeability of the tissue. […] Since the peptide has a strong partition coefficient to lipids, the mean concentration in the tissues is much lower than that in the membrane, the site of action.

[6] = test system: neurite; assay: Neurite initiation and neurite length; assay type: cell-based
From the text: The peptide GsMTx4 of the present invention can be prepared for pharmaceutical use by incorporation with a pharmaceutically acceptable carrier or diluent. The peptide can be formulated into tablets, capsules, caplets and the like. Suitable carriers for tablets include calcium carbonate, starch, lactose, talc, magnesium stearate and gum acacia. The peptide can also be formulated for oral, parenteral or intravenous administration in aqueous solutions, aqueous alcohol, glycol or oil solutions or emulsions. The peptide can also be formulated for inhaling by encapsulating to facilitate alveolar absorption as has been done for insulin (Inhale Therapeutic Systems, San Carlos, Calif., inhale.com). Pharmaceutical compositions suitable for such routes of administration are well known in the art. For example, suitable forms and compositions of pharmaceutical preparations can be found in Remington's Pharmaceutical Science, 1980, 15^thed. Mack Publishing Co., Easton, Pa. Thus, the peptide GsMTx4 can be administered orally, subcutaneously, parenterally, intravenously, intramuscularly or intranasally. The peptide may also be applied to medical devices that will come into contact blood. Both L and D enantiomers of GsMTx4's and its variants can be used for the present invention. We have previously shown that both L- and D-GsMTx4 block mechanosensitive channel (MSC) activity. Although, we have noted differences in the effects of these enantiomers, both forms are effective. For example, we have observed that the ability of the mirror image form (D-enantiomer) to inhibit mechanically activated ion channels is similar to the wild type peptide (L-form) (Suchyna et al 2004). […] Thus, both L and the D forms can be used in the present invention.

[7] = test system: mechanosensitive channel (MSC); settings: cited from earlier work
[8] = target: deoxygenation-induced Ca2+-permeable cation conductance (Psickle-like)
[9] = target: lysophosphatidic acid (LPA)-activated cation-permeable channel in human SS red cells
[10] = target: T1, KCa3.1 (Homo sapiens, UniProt O15554); settings: 50 nM; cited from earlier work
T1 construct: KCa3.1 activity stimulated in intact human AA cells by 1 μM A23187; endogenous in cells; host or cells: intact human AA red blood cells
T1 sequence (O15554 whole entry): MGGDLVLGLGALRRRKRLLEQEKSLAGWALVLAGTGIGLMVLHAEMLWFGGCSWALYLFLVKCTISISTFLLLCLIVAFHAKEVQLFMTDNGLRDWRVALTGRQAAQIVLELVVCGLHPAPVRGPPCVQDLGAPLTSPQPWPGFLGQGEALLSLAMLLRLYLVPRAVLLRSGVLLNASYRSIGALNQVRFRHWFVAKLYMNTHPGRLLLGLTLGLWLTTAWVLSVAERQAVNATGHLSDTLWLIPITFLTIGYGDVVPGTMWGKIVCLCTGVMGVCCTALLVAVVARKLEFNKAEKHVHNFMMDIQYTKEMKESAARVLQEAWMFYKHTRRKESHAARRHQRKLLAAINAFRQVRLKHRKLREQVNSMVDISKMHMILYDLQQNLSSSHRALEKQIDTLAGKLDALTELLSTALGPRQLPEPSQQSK

[11] = test system: LPA-induced cation conductance in human SS red cells; assay: On-cell patch clamp of LPA-induced cation conductance; assay type: cell-based; settings: 5 μM; Na methanesulfonate in bath and pipette, -Vp=-50 mV; n=8
From the text: On-cell patch clamp: Borosilicate pipettes (Corning 7052) pulled with a Narishige two stage puller or a Sutter P97 puller and fire-polished to resistances of 10-20 MΩ were front-filled and then backfilled. Symmetric bath and pipette solutions for studies of seal resistance stability during reversibility tests of the deoxygenation-activated conductance in SAD mouse red cells were (in mM) 140 NaCl, 4 KCl, 1 CaCl2, 1 MgCl2, 10 Na HEPES, pH 7.4. These conditions yielded tight seals in 13% of patch attempts on SAD cells. For study of deoxygenation-induced monovalent cation permeation in the absence of bath Ca^2+ and Mg^2+ recorded in SAD and Berkeley mouse cells and in human cells, symmetric bath and pipette solutions contained (in mM) 150 Na methanesulfonate, 10 Na EDTA, and 10 Na HEPES, pH 7.4. These conditions yielded tight seals in 16% of patch attempts on SAD mouse red cells, 26% of attempts on Berkeley mouse cells, and 30% of attempts on human SS cells. For study of Ca^2+ permeation in human SS cells, bath and pipette solutions contained (in mM) 100 CaCl2, 10 Na HEPES, pH 7.4. These conditions yielded tights seals on 44% of attempts. For all conditions tested in human red cells, 70% of tight seals were sustained through the solution change accompanying deoxygenation to allow recording of current activity.
On-cell patch currents were recorded with the Axopatch 1-D amplifier (Axon Instruments/Molecular Devices, Sunnyvale, Calif.). Holding potential was −Vp=−50 mV (expressed as the negative of the pipette potential (e.g., equivalent to the intracellular potential with respect to the pipette). To determine current-voltage relationships (I-V curves) in Fetchex or Clampex (PCLAMP, Axon Instruments), the realtime control window in gap-free mode was used to record current traces of 10-30 sec duration at holding potentials ranging from −100 to +100 mV, in 25 mV increments. The bath reference electrode was a silver chloride wire with a 3 M KCl agar bridge. Data was filtered at 500 Hz, digitized at 2 kHz by Clampex, and analyzed offline by Fetchan and Pstat or by Clampfit subroutines of PCLAMP. Holding potentials in on-cell patch experiments were expressed as −Vp, the negative of the pipette potential.
Deoxygenation-activated flickering cation conductance observed in human SS cells contrasted with the prolonged channel openings produced by 5 μM LPA (FIG. 10A). In SS cells, LPA increased NPo […], from 0.04±0.03 to 0.82±0.18 (n=8, p<0.001; Na methanesulfonate in bath and pipette, −Vp=−50 mV; FIG. 10B). LPA-induced cation conductance was 96% inhibited by 100 uM dipyridamole in the pipette, and 97% inhibited by 1 μM GsMTx-4 in the pipette (both n=4).

[12] = test system: human SS red cells; assay: Fluo-3 fluorescence measurement of [Ca2+]i after LPA; assay type: cell-based; settings: 5 μM; 75 SS red cells
From the text: Fluorescence measurements of cytosolic [Ca^2+] ([Ca^2+]i): After removal of plasma and buffy coat by aspiration, human or mouse red cells were washed three times at room temperature and suspended in modified Hank's solution containing (in mM), 137 NaCl, 5.4 KCl, 1 CaCl2, 1 MgCl2, 0.8 NaK phosphate, 5.6 glucose, and 10 Na HEPES, pH 7.4. Dilute cell suspensions were settled on polylysine-coated coverslips forming the bottom of an open perfusion chamber (2.5 cm diameter, 1 cm depth) and washed again 3 times.
Measurement of relative changes in [Ca^2+]i by Fluo-3 fluorescence emission was previously validated in intact human (Yang et al. 2000, Blood, 95(7):2421-2425; Andrews et al. 2002, Blood, 199(9):3392-3399) and mouse red cells (Akel et al. 2007, Amer. J. Physiol., 292(5):C1759-1767). Attached red cells were loaded in the dark with the fluorescent non-ratiometric Ca^2+ indicator Fluo-3-AM (10 μM, Molecular Probes, Eugene, Oreg.) at 37° C. for 1 hr, then washed and incubated 15 min further to allow de-esterification of intracellular dye. […] Fluorescence emission (proportional to [Ca^2+]i) from a 535ds20 bandpass filter was collected from all attached single cells within the arbitrarily selected visual field. […]

CC(C)C[C@H]1NC(=O)[C@H](NC(=O)CN)CSSC[C@H]2NC(=O)[C@H]3CSSC[C@H](C(=O)N[C@H](CC(N)=O)C(=O)N[C@H](Cc4ccccc4)C(=O)N[C@H](CO)C(=O)N[C@H](Cc4ccccc4)C(N)=O)NC(=O)[C@@H](CC(C)C)NC(=O)[C@@H](CCCCN)NC(=O)[C@@H](Cc4ccccc4)NC(=O)[C@@H](CC(C)C)NC(=O)[C@@H](CCCCN)NC(=O)[C@@H](CO)NC(=O)[C@@H](CSSC[C@@H](NC(=O)[C@@H](CCCCN)NC(=O)[C@@H](Cc4c[nH]c5ccccc45)NC(=O)[C@@H](Cc4c[nH]c5ccccc45)NC(=O)[C@@H](Cc4ccccc4)NC(=O)[C@@H](CCC(=O)O)NC1=O)C(=O)N[C@H](CC(N)=O)C(=O)N1CCC[C@@H]1C(=O)N[C@H](CC(N)=O)C(=O)N[C@H](CC(=O)O)C(=O)N[C@H](CC(=O)O)C(=O)N[C@H](CCCCN)C(=O)N3)NC(=O)[C@@H](CCCCN)NC(=O)[C@@H](CC(C)C)NC(=O)[C@@H](CCCCN)NC(=O)[C@H]1CCCN1C(=O)[C@@H](CCCNC(=N)N)NC2=O [D-GsMTx4] (H-G[dC][dL][dE][dF][dW][dW][dK][dC][dN][dP][dN][dD][dD][dK][dC][dC][dR][dP][dK][dL][dK][dC][dS][dK][dL][dF][dK][dL][dC][dN][dF][dS][dF]-NH2; disulfide 2-17, 9-23, 16-30 (inferred); N-terminus and C-terminus assumed)
toxicity [1]: No apparent toxicity
clinical signs ([2]; IV 9 mg/kg (highest dose), mice): slight tremors and decreased activity
duration of clinical signs after injection ([2]; IV 9 mg/kg, mice): ~0.5 h
mortality ([2]; IV 9, 5, 3 and 1 mg/kg, mice, 1 hour): No animals died
time by which all mice appeared normal ([2]; IV, all doses): ≤ 1 h
clinical signs ([3]; IV 9 mg/kg (highest dose), rat, remained for the 60 minute test duration): slow respiration, refusal to ambulate, decreased muscle tone
mortality ([3]; IV 9, 3 and 1 mg/kg, rats, 1 hour): No animals died
behavior changes [4]: no behavior changes
changes in QT intervals, arterial pressure and core temperature ([4]; 24 hours): No statistically significant changes
mortality ([5]; 5 mg/kg IV, 50 mg/kg subQ, 50 mg/kg GI lavage, 24 hour): No animals died
time of peak in all tissues ([5]; 5 mg/kg IV, mice): about 2 hrs
concentration in tissues ([5]; 50 mg/kg GI lavage, mice): almost no measurable concentration
time of peak in all tissues ([5]; 50 mg/kg subQ, mice): about 2 hrs
distribution pattern among tissues ([5]; IV and subQ, 7 tissues): liver received the most while brain received the least
course of tissue concentration after peak ([5]; IV and subQ, 24 hr): plateaued
course of blood concentration after peak ([5]; IV and subQ, over 24 hrs): decreased exponentially
Tmax ([5]; sc, 50 mg/kg subQ, mice): ≤ 2 h
Tmax ([5]; 5 mg/kg IV, mice): ≤ 2 h
effective half life of bound drug ([5]; suggested by the distribution data): very long
effect on neurite length [6]: no significant effect
neurite initiation [6]: did not stimulate
ability to inhibit mechanically activated ion channels compared with wild type peptide (L-form) ([7]; Suchyna et al 2004): similar
effect on mechanosensitive channel (MSC) activity ([7]; previously shown): block

Grammastola spatulata mechanotoxin 4 (GsMTx4) (peptide)
NPo of deoxygenation-induced cation conductance, on-cell patch on human SS red cells, Na methanesulfonate in pipette and bath [8]: 0.003 NPo
LPA-induced cation conductance (NPo), on-cell patch on human SS red cells [9]: 97 % inhibited

charybdotoxin
effect on A23187-stimulated 86Rb+ influx [10]: completely inhibited

lysophosphatidic acid [LPA]
NPo after exposure [11]: 0.82±0.18
increase in NPo [11]: 16 fold
effect on [Ca2+]i (Fluo-3 fluorescence) [12]: elevated

From patent publication US9211313B2, “Methods and compound to inhibit Ca2+ permeable cation conductance” (priority 2011, dated 2015)
